US20120088698A1, “WATER IN OIL EMULSION, METHOD FOR THE PRODUCTION THEREOF” (CLARIANT FINANCE (BVI) LIMITED, priority 2009, published 2012)
Read-outs that look alike come from different tables or passages of the source.

Legend:
[1] = system: Corophium Volulator
[2] = system: Skelotonema Costatum; conditions: in vivo
[3] = system: Skelotonema Costatum; assay: Ecotoxicology, Protocol ISO 10253; conditions: for EC50: 72 hrs
[4] = system: Artica Tonsa
[5] = Biodegradability, OECD 306 test; conditions: OECD 306, 28 days

Row | Compound | LC5@10 days ([1]; 10 days) [mg/kg] | NOEC @ 10 days ([1]; in vivo) [mg/kg] | 72 h EC90 [2] [µg/mL] | NOEC@72 h [2] [mg/L] | EC50 [3] [µg/mL] | 48 h NOEC ([4]; 48 h) [mg/L] | 48 h LC90 ([4]; 48 h, first figure of LC90/100) [µg/mL] | 48 h LC100 ([4]; 48 h, second figure of LC90/100) [mg/L] | LC50 ([4]; 48 hrs) [µg/mL] | Degradation (biodegradability) [5] [%] | NOEC @ 10 days ([1]; 10 days) [mg/kg] | 72 h EC90 ([3]; 72 h) [µg/mL] | NOEC@72 h ([3]; 72 h) [mg/L]
1 | CCCCCCCC/C=C\CCCCCCCCN1CC(C(=O)O)CC1=O.NCCO (centres unmarked) [OleylPyCOO-MEA, N-oleyl(pyrrolidine-2-one)-4-carboxylic acid/ethanol amine salt] | 433 | 160 | 0.58 | 0.32 | 0.44 | 0.30 | 4.2 | 9.0 | 2.8 | 69 | – | – | –
2 | N-oleyl(pyrroildine-2-one)-4-carboxylic acid/morpholine distillation residue salt [OleylPyCOO-AmixM] | – | – | – | – | 1.6 | – | – | – | – | – | 524 | 3.0 | 0.56
